Test results reported in publication PMC7817688, “Identification of 3-chymotrypsin like protease (3CLPro) inhibitors as potential anti-SARS-CoV-2 agents” (Communications Biology, 2021).
Values joined by “and” are separate entries in the source; they are usually repeats but may differ in a detail not shown here. Equal entries are not always repeated. Numbered stars: 1 amine (or outer) side, 2 acyl side, 3 side chain; on linkers, the order of the positions; unused ones are H or OH. Bridge positions count the residues as written; N and C are the ends. Square brackets hold non-standard residues; d marks the D form. Peptide text beside a SMILES is read from it. * marks the point of attachment. hTyr(3S-OH,4S-OH,3'-OSO3H) = N[C@H](C(=O)O)[C@H](O)[C@@H](O)c1ccc(O)c(OS(=O)(=O)O)c1; Orn(4R-OH,5R-OH) = O=C([C@H](C[C@@H](O)[C@@H](O)N[*:3])N[*:1])[*:2]; Pro(3S-OH,4S-Me) = C[C@H]1CN[C@H](C(=O)O)[C@H]1O; X1 = CCCCCOc1ccc(-c2cc(-c3ccc(C(=O)*)cc3)no2)cc1; Gln(3R-OH) = NC(=O)C[C@@H](O)[C@H](N)C(=O)O; Hyp = O=C(O)[C@@H]1C[C@@H](O)CN1

Molecular target: SARS-CoV-2 3CLpro enzyme (Severe acute respiratory syndrome coronavirus 2, UniProt P0DTD1)
Assay: biochemical
Conditions: for percent enzymatic activity, individual values / percent enzymatic activity, AVG: DMSO treated control = 100%, data of Figs. 2-4; for percent enzymatic activity, AVG: mean of 3 values
[1] = dose-dependent study, 25 uM, individual values

SMILES: CCCCCOc1ccc(-c2cc(-c3ccc(C(=O)N[C@H]4C[C@@H](O)[C@@H](O)NC(=O)[C@@H]5[C@@H](O)[C@@H](C)CN5C(=O)[C@H]([C@H](O)CC(N)=O)NC(=O)[C@H]([C@H](O)[C@@H](O)c5ccc(O)c(OS(=O)(=O)O)c5)NC(=O)[C@@H]5C[C@@H](O)CN5C(=O)[C@H]([C@@H](C)O)NC4=O)cc3)no2)cc1 [Micafungin] (X1-[Orn(4R-OH,5R-OH)]T[Hyp][hTyr(3S-OH,4S-OH,3'-OSO3H)][Gln(3R-OH)][Pro(3S-OH,4S-Me)]; lactam 1-C)
- percent enzymatic activity, individual values (50 µM drug): 37.5856% and 41.7364% and 49.3462%
- percent enzymatic activity, AVG (50 µM drug): 42.8894%
- % activity (dose-dependent study, 0.097656 uM, individual values): 93.428% and 107.627%
- activity at 0.097656 µM (dose-dependent study, 0.097656 uM, individual values, read-out: % activity): 103%
- % activity (dose-dependent study, 0.195313 uM, individual values): 93.921% and 112.575%
- activity at 0.195313 µM (dose-dependent study, 0.195313 uM, individual values, read-out: % activity): 95.4%
- % activity (dose-dependent study, 0.390625 uM, individual values): 94.414% and 111.957%
- activity at 0.390625 µM (dose-dependent study, 0.390625 uM, individual values, read-out: % activity): 94.9%
- % activity (dose-dependent study, 0.78125 uM, individual values): 110.101%
- activity at 0.78125 µM (dose-dependent study, 0.78125 uM, individual values, read-out: % activity): 101%
- % activity (dose-dependent study, 1.5625 uM, individual values): 99.8373% and 115.049%
- activity at 1.5625 µM (dose-dependent study, 1.5625 uM, individual values, read-out: % activity): 101%
- % activity (dose-dependent study, 3.125 uM, individual values): 103.781% and 119.998%
- activity at 3.125 µM (dose-dependent study, 3.125 uM, individual values, read-out: % activity): 105%
- % activity (dose-dependent study, 6.25 uM, individual values): 110.101%
- activity at 6.25 µM (dose-dependent study, 6.25 uM, individual values, read-out: % activity): 105%
- % activity (dose-dependent study, 12.5 uM, individual values): 103.915%
- activity at 12.5 µM (dose-dependent study, 12.5 uM, individual values, read-out: % activity): 92.9%
- % activity [1]: 86.0326% and 95.2558%
- activity at 25 µM [1]: 79.6%
- % activity (dose-dependent study, 50 uM, individual values): 43.6326% and 50.0419% and 67.4213%
- % activity (dose-dependent study, 100 uM, individual values): 20.9535% and 30.3087%
- activity at 100 µM (dose-dependent study, 100 uM, individual values, read-out: % activity): 19%
- IC50 (drugs 0 to 100 µM, 50 µM substrate, non-linear four variable fit, read-out: IC50 for SARS-CoV-2 3CL protease): 47.6 µM
- inhibitory effect towards 3CLpro enzymatic activity (in words) (in vitro enzymatic assay at the tested doses): partial inhibitory effect
- inhibition at 50 µM (read-out: inhibition of 3CLpro enzymatic activity, 50 µM drug): 57%
- inhibition at 100 µM (read-out: inhibition of 3CLpro enzymatic activity, 100 µM drug): ~80%

SMILES: CCC(CC)COC(=O)[C@H](C)N[P@](=O)(OC[C@H]1O[C@@](C#N)(c2ccc3c(N)ncnn23)[C@H](O)[C@@H]1O)Oc1ccccc1 [Remdesivir]
- percent enzymatic activity, individual values (50 µM drug): 83.5766% and 41.9708% and 50.7299%
- percent enzymatic activity, AVG (50 µM drug): 58.7591%

SMILES: CC[C@@H]([C@H](C)O)n1ncn(-c2ccc(N3CCN(c4ccc(OC[C@@H]5CO[C@@](Cn6cncn6)(c6ccc(F)cc6F)C5)cc4)CC3)cc2)c1=O [Posaconazole]
- percent enzymatic activity, individual values (50 µM drug): 84.6282% and 81.1692%
- percent enzymatic activity, AVG (50 µM drug): 83.4752%
